Columns and labels:
[1] = test system: α-II spectrin breakdown products (SBDP); details: 5 mg/kg i.p. five minutes prior to TBI
Procedure: (§1) In vivo model of TBI injury model: A controlled cortical impact (CCI) device is used to model TBI on rats as previously described (Pike et al, 1998). Adult male (280-300 g) Sprague-Dawley rats (Harlan: Indianapolis, Ind.) are anesthetized with 4% isoflurane in a carrier gas of 1:1 O2/N2O (4 min.) and maintained in 2.5% isoflurane in the same carrier gas. Core body temperature is monitored continuously by a rectal thermistor probe and maintained at 37±1° C. by placing an adjustable temperature controlled heating pad beneath the rats. Animals are mounted in a stereotactic frame in a prone position and secured by ear and incisor bars. Following a midline cranial incision and reflection of the soft tissues, a unilateral (ipsilateral to site of impact) craniotomy (7 mm diameter) is performed adjacent to the central suture, midway between bregma and lambda. The dura mater is kept intact over the cortex. Brain trauma is produced by impacting the right (ipsilateral) cortex with a 5 mm diameter aluminum impactor tip (housed in a pneumatic cylinder) at a velocity of 3.5 m/s with a 1.6 mm compression and 150 ms dwell time.
Tissue and Sample Preparation: At the appropriate time points (2, 6, 24 hours and 2, 3, 5 days) after injury, animals are anesthetized and immediately sacrificed by decapitation. Brains are quickly removed, rinsed with ice cold PBS and halved. […]

[2] = test system: Fluoro-Jade positive neurons; experiment: Fluoro-Jade staining of degenerating neurons following CCI, counted by optical fractionator; type: in vivo, rat
Procedure: Fluoro-Jade is used to determine whether the presence of dicyclomine affects cell death following CCI. Experimental procedures are performed as described by Cox, C D, et al. 2008. Briefly, at 24 hours (±1 hr) following the perfusion, brains are rinsed in 0.1M PB (5 minutes×2), cryoprotected in 10% and 30% solutions of sucrose in 0.1M PB for 1 hour and 48 hours, respectively, and stored in the 30% sucrose/PB solution at −80° C. The brains are blocked and sectioned caudorostrally in 45 μm increments from Bregma—1.9 mm to Bregma—4.15 mm using a sliding microtome (American Optical Corp., model 860). The tissue sections are then mounted onto slides using distilled water and allowed to dry. For the Fluoro-Jade staining procedure (Schmued et al., 1997), the sections are rehydrated using successive 5 minute rinses in 100%, 75%, 50%, and 25% ethanol followed by 3 minutes in dH2O, placed in 0.06% KMNO4 for 15 minutes followed by 2 minutes in dH2O, and then stained in 0.0006% Fluoro-Jade B solution in 0.1% acetic acid for 30 minutes. The slides are air-dried overnight, immersed in xylene, and coverslipped with DPX.
The total number of Fluoro-Jade stained cells within the CA2/CA3 region of the dorsal hippocampus for each subject is estimated using the optical fractionator technique (West et al., 1991) with a computer-based system (Stereologer version 1.3, Systems Planning and Analysis, Inc., Alexandria, Va.). The border of the dorsal CA2/3 pyramidal cell layer within each section was outlined using a 2× objective, and the cells are then manually counted at the 40× magnification. For the cortical cell counts, a site of highly localized Fluoro-Jade positivity observed in the cortex adjacent to the site of impact serves as the ROI: the region was outlined at the 2× magnification and cells were quantified at 40× as with the hippocampal region. A numerical estimate of the total number of cells in each region of interest for each subject is calculated by the software using the equation:
Nobj=(N)(1/SSF)(1/ASF)(1/TSF)
Where N represents the sum of all objects counted for the subject, SSF the section sampling fraction, ASF the area sampling fraction, and TSF the thickness sampling fraction.

[3] = Body weight loss after controlled cortical impact (CCI) TBI; type: in vivo, rat; details: 5 mg/kg i.p. five minutes prior to TBI
Procedure: as §1
Subjects are administered CCI essentially as described in Example 2 and CSF is prepared as described in Example 4. […] The vehicle-treatment group receives an equal volume i.p. injection of isotonic saline. […]

CCN(CC)CCOC(=O)C1(C2CCCCC2)CCCCC1 [Dicyclomine, dicyclomine]
Production of SBDPs in CSF following TBI [1]: inhibits production of SBDPs | Mean number of Fluoro-Jade positive neurons, hippocampal ROI ([2]; CA2/CA3 dorsal hippocampus, 24 hours post-TBI, 5 mg/kg i.p., vehicle 2982): 2640 | Mean number of Fluoro-Jade positive neurons, cortical ROI ([2]; cortex adjacent to impact site, 24 hours post-TBI, 5 mg/kg i.p., vehicle 84392): 84452 | Effect on neuronal cell viability ([2]; following TBI): no effect | Difference in Fluoro-Jade positive neurons between treatment groups (T-test) ([2]; hippocampal and cortical ROIs, dicyclomine vs vehicle): no significant difference | % Body Weight Loss ([3]; mean +/- spread, * p<0.01 vs saline): *7.8 +/− 2.08% | Percent body weight loss compared to the saline-treated group ([3]; p<0.01): significantly reduced
